Data on one molecule can be found in patent US20150320823A1, “NOVEL USE OF RICE, RICE BRAN OR RICE HULL EXTRACT AS AN HISTAMINE RECEPTOR ANTAGONIST” (KOREA FOOD RESEARCH INSTITUTE, priority 2011, published 2015).

This experiment has as its system GABAA-benzodiazepine receptor. Nature of the experiment: Sleep-improving mechanism: pentobarbital sleep test with GABAA-benzodiazepine antagonist flumazenil (FLU). The experiment is classed as in vivo. The following applies: mouse; FLU 8 mg/kg i.p. 10 min before sample p.o. (DZP 0.5 mg/kg; BEE 500 mg/kg); pentobarbital 45 mg/kg 45 min later.

On to `CN1C(=O)CN=C(c2ccccc2)c2cc(Cl)ccc21` [DZP, diazepam], for which the “effect of flumazenil (FLU) on the sleep-improving effect (sleep latency, sleep duration)” value is on record as “had an effect”.
